pIC50: −log10 of the molar value. Where two headings read alike, the source gives them in different places.
How the values were obtained:
[1] = tested on: K562 cells expressing kinase Bcr-AbI; experiment: Inhibition of cellular proliferation (MTT), K562 cells; assay type: cell-based, human
Description: Cellular tests were carried out at the Montpellier Cancer Research Centre. The inhibition of proliferation by our compounds was analysed on 2 cell lines (U937 and K562) by calculating the IC50, testing 6 concentrations in triplicate for each of the compounds and for each line.
Cells in exponential phase were seeded in 96-well plates at a concentration of 10^4 cells/100 μL/well. The final concentrations of compound in the well in contact with the cells were 0.1; 0.3; 0.9; 3.3; 10; 30; 90 μM. […]

[2] = biological target: Src kinase (Homo sapiens (Human), UniProt P12931); experiment: Reaction Biology Corp. kinase assay, Src; details: compounds tested by Reaction Biology Corp.; for pIC50: IC50 on kinase Src (category), ATP at 10 μM; for inhibition at 10 µM: read-out: % inhibition of kinase activity, Src (category), 10 μM
[3] = biological target: Abl T315I (Homo sapiens (Human), UniProt P00519, T315I); experiment: Reaction Biology Corp. kinase assay, mutated Abl T315I; assay type: biochemical; details: Reaction Biology Corp.; for inhibition at 10 µM: read-out: % inhibition of kinase activity, Abl T315I (category); for pIC50: ATP at 10 μM, read-out: IC50 on kinase Abl T315I (category)
Description: (§1) 4 compounds were tested for their capacity to inhibit various mutated kinases AbI (American company, Reaction Biology Corp.).

[4] = biological target: Abl WT (Homo sapiens (Human), UniProt P00519); experiment: Reaction Biology Corp. kinase assay, Abl WT; assay type: biochemical; details: compounds tested by Reaction Biology Corp.; for inhibition at 10 µM: read-out: % inhibition of kinase activity, Abl WT (category); for pIC50: ATP at 10 μM, read-out: IC50 on kinase Abl WT (category)
Description: as §1

[5] = Homo sapiens, K562, 24 h, 24 h incubation, read-out: IC50 at 24 h on K562 (category)
[6] = Homo sapiens, K562, 72 h, read-out: IC50 at 72 h on K562 (category), 72 h incubation
[7] = Homo sapiens, K562, incubation time not stated (24 h and/or 72 h), read-out: IC50 for the K562 Bcr-AbI kinase (category)

Src kinase, sequence (P12931 whole entry, looked up): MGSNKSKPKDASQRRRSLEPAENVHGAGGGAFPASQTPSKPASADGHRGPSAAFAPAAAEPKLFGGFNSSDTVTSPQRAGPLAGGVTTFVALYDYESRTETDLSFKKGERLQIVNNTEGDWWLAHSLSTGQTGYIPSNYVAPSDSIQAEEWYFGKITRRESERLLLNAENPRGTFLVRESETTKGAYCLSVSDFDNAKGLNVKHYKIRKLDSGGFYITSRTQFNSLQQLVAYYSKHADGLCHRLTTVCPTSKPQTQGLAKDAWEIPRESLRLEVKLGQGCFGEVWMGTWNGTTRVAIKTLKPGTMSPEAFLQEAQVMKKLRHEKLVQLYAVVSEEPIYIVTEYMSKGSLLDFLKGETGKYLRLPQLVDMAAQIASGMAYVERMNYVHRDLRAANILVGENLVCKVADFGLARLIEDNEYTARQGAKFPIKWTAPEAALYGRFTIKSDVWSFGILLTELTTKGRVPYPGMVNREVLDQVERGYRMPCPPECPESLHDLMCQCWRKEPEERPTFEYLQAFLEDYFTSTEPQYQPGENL

Row | pIC50 [1, 5] | pIC50 [1, 6] | pIC50 [2] | inhibition at 10 µM [2] | inhibition at 10 µM [3] | inhibition at 10 µM [4] | pIC50 [4] | pIC50 ([1]; incubation time not stated (24 h and/or 72 h), read-out: IC50 for the K562 Bcr-AbI kinase (category)) | pIC50 [1, 7] | pIC50 [3] | SMILES
1 | < 5.00 | 6.00 to 8.00 | 7.00 to 9.00 | > 50% | < 10% | > 50% | 7.00 to 9.00 | – | – | – | COC(=O)c1cc2cc(NC(=O)c3c(Cl)cccc3Cl)cnc2[nH]1 [ND0072, Methyl 5-(2,6-dichlorobenzamido)-1H-pyrrolo[2,3-b]pyridine-2-carboxylate]
2 | < 5.00 | 6.00 to 8.00 | 7.00 to 9.00 | > 50% | < 10% | – | 7.00 to 9.00 | < 5.00 | – | – | COC(=O)c1cc2cc(NC(=O)c3c(C)cccc3Cl)cnc2[nH]1 [ND0074, Methyl 5-(2-chloro-6-methylbenzamido)-1H-pyrrolo[2,3-b]pyridine-2-carboxylate]
3 | 5.00 to 6.00 | 6.00 to 8.00 | – | > 50% | < 10% | > 50% | 5.00 to 7.00 | – | 8.00 | – | COC(=O)c1cc2cc(NC(=O)c3ccccc3C)cnc2[nH]1 [ND0076, Methyl 5-(2-methylbenzamido)-1H-pyrrolo[2,3-b]pyridine-2-carboxylate]
4 | – | – | – | 10 to 50% | < 10% | 10 to 50% | – | – | – | – | COC(=O)c1cc2cc(NC(=O)c3cccs3)cnc2[nH]1 [ND0079, Methyl 5-(thiophene-2-carboxamido)-1H-pyrrolo[2,3-b]pyridine-2-carboxylate]
5 | – | – | – | < 10% | < 10% | > 50% | 5.00 to 7.00 | – | – | – | COC(=O)c1cc2cc(NC(=O)c3ccc4[nH]ccc4c3)cnc2[nH]1 [ND0082]
6 | – | – | – | 10 to 50% | < 10% | > 50% | 5.00 to 7.00 | – | – | – | COC(=O)c1cc2cc(NC(=O)c3cc(C)n[nH]3)cnc2[nH]1 [ND0085]
7 | – | – | – | < 10% | < 10% | 10 to 50% | – | – | – | – | COC(=O)c1cc2cc(NC(=O)c3cccc(S(=O)(=O)NCc4ccco4)c3)cnc2[nH]1 [ND0086]
8 | 5.00 to 6.00 | 6.00 to 8.00 | 7.00 to 9.00 | > 50% | 10 to 50% | > 50% | 7.00 to 9.00 | – | 8.00 | – | COC(=O)c1cc2cc(NCc3c(Cl)cccc3Cl)cnc2[nH]1 [ND0087]
9 | – | – | 5.00 to 7.00 | > 50% | < 10% | > 50% | 5.00 to 7.00 | – | – | – | COC(=O)c1cc2cc(NCc3ccccc3OC)cnc2[nH]1 [ND0088]
10 | < 5.00 | 6.00 to 8.00 | 7.00 to 9.00 | > 50% | < 10% | > 50% | 7.00 to 9.00 | – | – | – | COC(=O)c1cc2cc(NCc3c(C)cccc3Cl)cnc2[nH]1 [ND0089]
11 | 5.00 to 6.00 | 6.00 to 8.00 | 7.00 to 9.00 | > 50% | 10 to 50% | > 50% | 7.00 to 9.00 | – | 8.00 | – | COC(=O)c1cc2cc(NCc3ccccc3C)cnc2[nH]1 [ND0090]
12 | – | – | 5.00 to 7.00 | > 50% | < 10% | > 50% | 5.00 to 7.00 | – | – | – | COC(=O)c1cc2cc(NCc3ccccc3C(F)(F)F)cnc2[nH]1 [ND0091]
13 | – | – | – | < 10% | < 10% | 10 to 50% | – | – | – | – | COC(=O)c1cc2cc(NCc3ccccc3OC(F)(F)F)cnc2[nH]1 [ND0092]
14 | – | – | 5.00 to 7.00 | > 50% | 10 to 50% | > 50% | 5.00 to 7.00 | – | – | – | COC(=O)c1cc2cc(NCc3cccs3)cnc2[nH]1 [ND0093]
15 | – | – | 5.00 to 7.00 | > 50% | 10 to 50% | > 50% | 5.00 to 7.00 | – | – | – | COC(=O)c1cc2cc(NCc3nccs3)cnc2[nH]1 [ND0094]
16 | – | – | – | 10 to 50% | < 10% | 10 to 50% | – | – | – | – | COC(=O)c1cc2cc(NCc3ncc[nH]3)cnc2[nH]1 [ND0095]
17 | 5.00 to 6.00 | 6.00 to 8.00 | 5.00 to 7.00 | > 50% | > 50% | > 50% | 7.00 to 9.00 | – | 8.00 | 5.00 to 7.00 | COC(=O)c1cc2cc(NCc3ccc4[nH]ccc4c3)cnc2[nH]1 [ND0096]
18 | – | – | 5.00 to 7.00 | > 50% | < 10% | > 50% | 5.00 to 7.00 | – | – | – | COC(=O)c1cc2cc(NCc3cc[nH]n3)cnc2[nH]1 [ND0098]
19 | – | – | – | 10 to 50% | < 10% | > 50% | – | – | – | – | COC(=O)c1cc2cc(NCc3ccc(S(N)(=O)=O)cc3)cnc2[nH]1 [ND0101]
20 | – | – | – | 10 to 50% | < 10% | 10 to 50% | – | – | – | – | COC(=O)c1cc2cc(Nc3cccc(I)c3)cnc2[nH]1 [ND0103]
21 | – | – | – | 10 to 50% | 10 to 50% | 10 to 50% | – | – | – | – | COC(=O)c1cc2cc(Nc3ccc(I)cc3)cnc2[nH]1 [ND0108]
22 | 8.00 | > 8.00 | 7.00 to 9.00 | > 50% | 10 to 50% | > 50% | > 9.00 | – | 8.00 | – | COC(=O)c1cc2cc(NC(=O)c3cc(NC(=O)c4ccc(CN5CCN(C)CC5)cc4)ccc3C)cnc2[nH]1 [ND0117, methyl 5-(5-(4-((4-methylpiperazin-1-yl)methyl)benzamido)-2-methylbenzamido)-1H-pyrrolo[2,3-b]pyridine-2-carboxylate]
23 | 5.00 to 6.00 | > 8.00 | > 9.00 | > 50% | > 50% | > 50% | > 9.00 | – | – | 5.00 to 7.00 | COC(=O)c1cc2cc(NCc3cc(NC(=O)c4ccc(CN5CCN(C)CC5)cc4)ccc3C)cnc2[nH]1 [ND0118, methyl 5-(5-(4-((4-methylpiperazin-1-yl)methyl)benzamido)-2-methyl-benzylamino)-1H-pyrrolo[2,3-b]pyridine-2-carboxylate]
24 | 8.00 | > 8.00 | 7.00 to 9.00 | > 50% | > 50% | > 50% | > 9.00 | – | 8.00 | 5.00 to 7.00 | COC(=O)c1cc2cc(NC(=O)c3cc(NC(=O)c4ccc(CN5CCC(N(C)C)C5)c(C(F)(F)F)c4)ccc3C)cnc2[nH]1 (stereo not drawn) [ND0119, methyl 5-(5-(4-((3-(dimethylamino)pyrrolidin-1-yl)methyl)-3-(trifluoro-methyl)benzamido)-2-methylbenzamido)-1H-pyrrolo[2,3-b]pyridine-2-carboxylate]
